Patent publication US9765056B2, “Indole and pyrrole compounds, a process for their preparation and pharmaceutical compositions containing them” (LES LABORATOIRES SERVIER, priority 2013, dated 2017)
Counter-ions that a name gives are not always drawn.

Columns and labels:
[1] = tested on: RS4;11 leukaemia tumour line; test: In vitro cytotoxicity, Microculture Tetrazolium Assay (MTT); assay type: cell-based; settings: RS4;11 cells, 48 hours exposure
Protocol: The cytotoxicity studies were carried out on the RS4;11 leukaemia tumour line.
The cells are distributed onto microplates and exposed to the test compounds for 48 hours. The cell viability is then quantified by a colorimetric assay, the Microculture Tetrazolium Assay (Cancer Res., 1987, 47, 939-942).

Bcl-2 protein = Bcl-2 protein (histag-Bcl-2, UniProtKB P10415) (Homo sapiens (Human), UniProt P10415); test: Inhibition of Bcl-2 by the fluorescence polarisation technique; assay type: binding; settings: for IC50: fluorescence polarisation test, method A, or method B where underlined (underlining not visible), read-out: IC50 (nM) Bcl-2 FP
From the text: Inhibition of Bcl-2 by the fluorescence polarisation technique

Chain of Bcl-2 protein (P10415 whole entry): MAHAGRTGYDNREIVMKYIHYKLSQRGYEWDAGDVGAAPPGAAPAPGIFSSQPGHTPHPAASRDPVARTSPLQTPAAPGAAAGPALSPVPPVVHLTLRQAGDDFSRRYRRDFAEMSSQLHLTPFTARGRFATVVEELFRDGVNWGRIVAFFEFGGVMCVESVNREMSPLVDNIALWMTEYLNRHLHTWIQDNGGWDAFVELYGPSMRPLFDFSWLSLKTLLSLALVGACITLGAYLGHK

Row | SMILES | IC50 ([1]; Homo sapiens) [nM] | IC50 (Bcl-2 protein) [nM] | inhibition at 10 µM (Bcl-2 protein; read-out: percentage fluorescence polarisation inhibition (Bcl-2 FP)) [%] | IC50 [1] [nM]
1 | Cc1cc(C(=O)N(c2ccccc2)c2ccc(O)cc2)cn1-c1cc(O)ccc1C(=O)N1Cc2ccccc2C[C@H]1CN1CCN(C)CC1 [Example 17, 1-(5-Hydroxy-2-{[(3S)-3-[(4-methylpiperazin-1-yl)methyl]-3,4-dihydroisoquinolin-2(1H)-yl]carbonyl}phenyl)-N-(4-hydroxyphenyl)-5-methyl-N-phenyl-1H-pyrrole-3-carboxamide] | 1010 | 11.4 | – | –
2 | Cc1ccc(N(C(=O)c2cn(-c3cc4c(cc3C(=O)N3Cc5ccccc5C[C@H]3CN3CCN(C)CC3)OCO4)c3ccccc23)C2CCNCC2)cc1 [Example 98, N-(4-Methylphenyl)-1-(6-{[(3S)-3-[(4-methylpiperazin-1-yl)methyl]-3,4-dihydroisoquinolin-2(1H)-yl]carbonyl}-1,3-benzodioxol-5-yl)-N-(piperidin-4-yl)-1H-indole-3-carboxamide bis-hydrochloride] | 1880 | – | 45.1 | –
3 | CC(=O)Oc1ccc(N(C(=O)c2cn(-c3cc4c(cc3C(=O)N3Cc5ccccc5C[C@H]3CN3CCN(C)CC3)OCO4)c3ccccc23)c2ccc(C)cc2)cc1 [Example 60, 4-[(4-Methylphenyl){[1-(6-{[(3S)-3-[(4-methylpiperazin-1-yl)methyl]-3,4-dihydroisoquinolin-2(1H)-yl]carbonyl}-1,3-benzodioxol-5-yl)-1H-indol-3-yl]-carbonyl}amino]phenyl acetate] | – | 206 | – | 89.5
4 | CN1CCN(C[C@@H]2Cc3ccccc3CN2C(=O)c2cc3c(cc2-n2cc(C(=O)N(c4ccc(O)c(Cl)c4)c4ccc5c(ccn5C)c4)c4ccccc42)OCO3)CC1 [Example 81, N-(3-Chloro-4-hydroxyphenyl)-N-(1-methyl-1H-indol-5-yl)-1-(6-{[(3S)-3-[(4-methylpiperazin-1-yl)methyl]-3,4-dihydroisoquinolin-2(1H)-yl]carbonyl}-1,3-benzodioxol-5-yl)-1H-indole-3-carboxamide hydrochloride] | 652 | 83.8 | – | –
5 | Cc1cc(C(=O)N(c2ccccc2)c2ccc3[nH]ccc3c2)cn1-c1ccccc1C(=O)N1Cc2ccccc2C[C@H]1CN(C)C [Example 10, 1-(2-{[(3S)-3-[(Dimethylamino)methyl]-3,4-dihydroisoquinolin-2(1H)-yl]carbonyl}phenyl)-N-(1H-indol-5-yl)-5-methyl-N-phenyl-1H-pyrrole-3-carboxamide] | 2220 | 146 | – | –
6 | Cc1cc(C(=O)N(c2ccc(O)cc2)c2ccc3c(ccn3C)c2)cn1-c1cc2c(cc1C(=O)N1Cc3ccccc3C[C@H]1CN(C)C)OCO2 [Example 94, 1-(6-{[(3S)-3-[(Dimethylamino)methyl]-3,4-dihydroisoquinolin-2(1H)-yl]carbonyl}-1,3-benzodioxol-5-yl)-N-(4-hydroxyphenyl)-5-methyl-N-(1-methyl-1H-indol-5-yl)-1H-pyrrole-3-carboxamide hydrochloride] | 118 | 7.9 | – | –
7 | Cc1cc(C(=O)N(c2ccc(O)cc2)c2ccc3[nH]ccc3c2)cn1-c1cc(Br)ccc1C(=O)N1Cc2ccccc2C[C@H]1CN1CCN(C)CC1 [Example 46, 1-(5-Bromo-2-{[(3S)-3-[(4-methylpiperazin-1-yl)methyl]-3,4-dihydroisoquinolin-2(1H)-yl]carbonyl}phenyl)-N-(4-hydroxyphenyl)-N-(1H-indol-5-yl)-5-methyl-1H-pyrrole-3-carboxamide] | 93.4 | 8.4 | – | –
8 | Cc1cc(C(=O)N(c2ccc(O)cc2)c2ccc3[nH]ccc3c2)cn1-c1cc(Br)ccc1C(=O)N1Cc2ccccc2C[C@H]1C(=O)N1CCN(C)CC1 [Example 101, 1-(5-Bromo-2-{[(3S)-3-[(4-methylpiperazin-1-yl)carbonyl]-3,4-dihydroisoquinolin-2(1H)-yl]carbonyl}phenyl)-N-(4-hydroxyphenyl)-N-(1H-indol-5-yl)-5-methyl-1H-pyrrole-3-carboxamide] | 1880 | 99.1 | – | –
9 | CN1CCN(C[C@@H]2Cc3ccccc3CN2C(=O)c2ccc(Br)cc2-n2cc(C(=O)N(c3ccc(O)cc3)c3ccc(Cl)cc3)c3ccccc32)CC1 [Example 59, 1-(5-Bromo-2-{[(3S)-3-[(4-methylpiperazin-1-yl)methyl]-3,4-dihydroisoquinolin-2(1H)-yl]carbonyl}phenyl)-N-(4-chlorophenyl)-N-(4-hydroxyphenyl)-1H-indole-3-carboxamide] | 206 | 19.2 | – | –
10 | CCCCN(C(=O)c1cn(-c2cc(OC)c(O)cc2C(=O)N2Cc3ccccc3C[C@H]2CN2CCN(C)CC2)c2ccccc12)c1ccccc1 [Example 194, N-Butyl-1-{4-hydroxy-5-methoxy-2-[(3S)-3-[(4-methylpiperazin-1-yl)-methyl]-1,2,3,4-tetrahydroisoquinoline-2-carbonyl]phenyl}-N-phenyl-1H-indole-3-carboxamide dihydrochloride] | 534 | 6.7 | – | –
11 | COc1cc(-n2nc(C(=O)N(c3ccccc3)c3ccccc3)c3ccccc32)c(C(=O)N2Cc3ccccc3C[C@H]2CN)cc1O [Example 135, 1-{2-[(3S)-3-(Aminomethyl)-1,2,3,4-tetrahydroisoquinoline-2-carbonyl]-4-hydroxy-5-methoxyphenyl}-N,N-diphenyl-1H-indazole-3-carboxamide] | 461 | 10.4 | – | –
12 | CN1CCN(C[C@@H]2Cc3ccccc3CN2C(=O)c2cc3c(cc2-n2cc(C(=O)N(c4ccccc4)c4ccc(O)cc4)c4ccccc42)OCCO3)CC1 [Example 170, N-(4-Hydroxyphenyl)-1-{7-[(3S)-3-[(4-methylpiperazin-1-yl)methyl]-1,2,3,4-tetrahydroisoquinoline-2-carbonyl]-2,3-dihydro-1,4-benzodioxin-6-yl}-N-phenyl-1H-indole-3-carboxamide] | 177 | 16.8 | – | –
13 | Cc1cc(C(=O)N(c2ccc(O)cc2)c2ccc3[nH]ccc3c2)cn1-c1cc(Br)ccc1C(=O)N1Cc2ccccc2C[C@H]1CN1CCN(C2CCCC2)CC1 [Example 80, 1-(5-Bromo-2-{[(3S)-3-[(4-cyclopentylpiperazin-1-yl)methyl]-3,4-dihydroisoquinolin-2(1H)-yl]carbonyl}phenyl)-N-(4-hydroxyphenyl)-N-(1H-indol-5-yl)-5-methyl-1H-pyrrole-3-carboxamide] | 120 | 6.8 | – | –
14 | Cc1ccc(N(C(=O)c2cc(C)n(-c3cc(Br)ccc3C(=O)N3Cc4ccccc4C[C@H]3CN3CCN(C)CC3)c2)c2ccc(O)cc2)cc1 [Example 53, 1-(5-Bromo-2-{[(3S)-3-[(4-methylpiperazin-1-yl)methyl]-3,4-dihydroisoquinolin-2(1H)-yl]carbonyl}phenyl)-N-(4-hydroxyphenyl)-5-methyl-N-(4-methylphenyl)-1H-pyrrole-3-carboxamide] | 207 | 9 | – | –
15 | COc1cc(-n2nc(C(=O)N(c3ccccc3)c3ccccc3)c3ccccc32)c(C(=O)N2Cc3ccccc3C[C@H]2CN)cc1N [Example 152, 1-{4-Amino-2-[(3S)-3-(aminomethyl)-1,2,3,4-tetrahydroisoquinoline-2-carbonyl]-5-methoxyphenyl}-N,N-diphenyl-1H-indazole-3-carboxamide] | 2160 | 218 | – | –
